# Laboratory results from patent publication US9302999B2, “Substituted triazoles as herbicides” (E. I. DU PONT DE NEMOURS AND COMPANY, priority 2012, dated 2016).
# How the values were obtained:
# Type in all cases: in vivo
# [1] = tested on: dayflower, (VA) (Virginia dayflower, Commelina virginica); assay: Test E pre-/postemergence: dayflower, (VA); settings: scale 0 to 100
# Excerpt: (§1) Seeds of plant species selected from corn (Zea mays), soybean (Glycine max), velvetleaf (Abutilon theophrasti), lambsquarters (Chenopodium album), poinsettia, wild (wild poinsettia, Euphorbia heterophylla), pigweed, palmer (palmer pigweed, Amaranthus palmeri), waterhemp (common waterhemp, Amaranthus rudis), smartweed (ladysthumb smartweed, Polygonum persicaria), surinam grass (Brachiaria decumbens), crabgrass, large (large crabgrass, Digitaria sanguinalis), crabgrass, Brazil (Brazilian crabgrass, Digitaria horizontalis), panicum, fall (fall panicum, Panicum dichotomiflorum), foxtail, giant (giant foxtail, Setaria faberii), foxtail, green (green foxtail, Setaria viridis), goosegrass (Eleusine indica), johnsongrass (Sorghum halepense), ragweed (common ragweed, Ambrosia elation), barnyardgrass (Echinochloa crus-galli), sandbur (southern sandbur, Cenchrus echinatus), arrowleaf sida (Sida rhombifolia), ryegrass, Italian (Italian ryegrass, Lolium multiflorum), dayflower, (VA) (Virginia dayflower, Commelina virginica), field bindweed (Convolvulus arvensis), cocklebur (common cocklebur, Xanthium strumarium), morningglory (Ipomoea coccinea), nightshade (eastern black nightshade, Solanum ptycanthum), kochia (Kochia scoparia), nutsedge, yellow (yellow nutsedge, Cyperus esculentus) and beggarticks (hairy beggarticks, Bidens pilosa) were planted into a silt loam soil and treated preemergence with test chemicals formulated in a non-phytotoxic solvent mixture which included a surfactant. At the same time, plants selected from these crop and weed species were planted in pots containing a growing medium comprising spaghnum peat moss, vermiculite, wetting agent and starter nutrients and treated with postemergence applications of some of the test chemicals formulated in the same manner. Plants ranged in height from 2 to 18 cm for postemergence treatments (1- to 4-leaf stage).
# (§2) Treated plants and controls were maintained in a greenhouse for 14 to 21 days, after which time all species were compared to controls and visually evaluated. Plant response ratings, summarized in Table E, are based on a scale of 0 to 100 where 0 is no effect and 100 is complete control. A dash (-) response means no test result.
# [2] = tested on: japonica rice (ORYSP, Oryza sativa); assay: Test G paddy, alone and in combination: japonica rice; settings: evaluated after 14 days
# Experimental: (§3) Seeds of smallflower umbrella sedge (CYPDI, Cyperus difformis) and ducksalad (HETLI, Heteranthera limosa) were sown on the soil surface in two separate quadrants of 11 cm tubs filled with steam pasteurized Tama soil. Simultaneously, plantings of barnyardgrass (ECHCG, Echinochloa crus-galli) and japonica rice (ORYSP, Oryza sativa) were established in separate “plug” flats. Plants were grown in a greenhouse using supplemental lighting to maintain a photoperiod of approximately 16 h; daytime and nighttime temperatures were approximately 27-30° C. and 19-22° C., respectively. After 8 days, barnyardgrass plants were transplanted to one of the remaining quadrants of the tub, and the water level was adjusted to a final depth of 3 cm. Herbicide application timing was targeted at the 2.0 to 2.5 leaf stage and the plants were treated with test chemicals formulated in a non-phytotoxic solvent. Treated plants and controls were maintained in a greenhouse for 14 days, after which time all species were compared to controls and visually evaluated. Plant response ratings are summarized in Tables G1 through G3, and are based on a scale of 0 to 100 where 0 is no effect and 100 is complete control. A dash (-) response means no test result.
# [3] = tested on: barnyardgrass (ECHCG, Echinochloa crus-galli); assay: Test G paddy, alone and in combination: barnyardgrass; settings: evaluated after 14 days
# Experimental: as §3
# [4] = tested on: smallflower umbrella sedge (CYPDI, Cyperus difformis); assay: Test G paddy, alone and in combination: smallflower umbrella sedge; settings: evaluated after 14 days
# Experimental: as §3
# [5] = tested on: ducksalad (HETLI, Heteranthera limosa); assay: Test G paddy, alone and in combination: ducksalad; settings: evaluated after 14 days
# Experimental: as §3
# [6] = tested on: morningglory (Ipomoea coccinea); assay: Test E pre-/postemergence: morningglory; settings: Preemergence, scale 0 to 100
# Excerpt: as §1, §2
# [7] = tested on: waterhemp_RES1 (ALS/Triazine resistant common waterhemp, Amaranthus rudis); assay: Test F postemergence: waterhemp_RES1; settings: scale 0 to 100
# Excerpt: (§4) Seeds of plant species selected from corn (Zea mays), soybean (Glycine max), velvetleaf (Abutilon theophrasti), lambsquarters (Chenopodium album), poinsettia, wild (wild poinsettia, Euphorbia heterophylla), pigweed, palmer (palmer pigweed, Amaranthus palmeri), waterhemp (common waterhemp, Amaranthus rudis), surinam grass (Brachiaria decumbens), crabgrass, Brazil (Brazilian crabgrass, Digitaria horizontalis), panicum, fall (fall panicum Panicum dichotomiflorum), crabgrass, large (large crabgrass, Digitaria sanguinalis), foxtail, giant (giant foxtail, Setaria faberii), foxtail, green (green foxtail Setaria viridis), goosegrass (Eleusine indica), ragweed (common ragweed, Ambrosia elatior), barnyardgrass (Echinochloa crus-galli), sandbur (southern sandbur, Cenchrus echinatus), arrowleaf sida (Sida rhombifolia), ryegrass, Italian (Italian ryegrass, Lolium multiflorum), dayflower, VA (Virginia (VA) dayflower, Commelina virginica), field bindweed (Convolvulus arvensis), cocklebur (common cocklebur, Xanthium strumarium), morningglory (Ipomoea coccinea), nightshade (eastern black nightshade, Solanum ptycanthum), kochia (Kochia scoparia), nutsedge, yellow (yellow nutsedge, Cyperus esculentus), johnsongrass (Sorghum halepense), smartweed (ladysthumb smartweed, Polygonum persicaria), and beggarticks (hairy beggarticks, Bidens pilosa), were planted into a silt loam soil and treated preemergence with test chemicals formulated in a non-phytotoxic solvent mixture which included a surfactant. At the same time, plants selected from these crop and weed species and also pigweed (Amaranthus retroflexus), waterhemp_RES1 (ALS/Triazine resistant common waterhemp, Amaranthus rudis) and waterhemp_RES2 (ALS/HPPD resistant common waterhemp, Amaranthus rudis) were planted in pots containing a planting medium comprising spaghnum peat moss, vermiculite, wetting agent and starter nutrients treated with postemergence applications of some of the test chemicals formulated in the same manner. Plants ranged in height from 2 to 18 cm for postemergence treatments (1- to 4-leaf stage).
# as §2
# [8] = tested on: waterhemp_RES2 (ALS/HPPD resistant common waterhemp, Amaranthus rudis); assay: Test F postemergence: waterhemp_RES2; settings: scale 0 to 100
# Excerpt: as §4, §2
# Waterhemp = assay: Test C preemergence: waterhemp; settings: scale 0 (no effect) to 100 (complete control)
smiles,measurement,setting,value
"Cc1nn(-c2ccc(F)cc2)nc1Cc1ccnc(C(F)(F)F)c1 [Compound 16, 4-[[2-(4-fluorophenyl)-5-methyl-2H-1,2,3-triazol-4-yl]methyl]-2-(trifluoromethyl)pyridine]","Plant response rating: Dayflower, VA","[1]; Preemergence, 8 g ai/ha",0
same,"Plant response rating: Dayflower, VA","[1]; Preemergence, 16 g ai/ha",0
same,"Plant response rating: Dayflower, VA","[1]; Preemergence, 31 g ai/ha",35
same,"Plant response rating: Dayflower, VA","[1]; Preemergence, 62 g ai/ha",50
same,"Plant response rating: Dayflower, VA","[1]; Preemergence, 125 g ai/ha",85
same,ORYSP plant response rating (scale of 0 to 100),[2]; Rate 8 g/ha,10
same,ORYSP plant response rating (scale of 0 to 100),[2]; Rate 16 g/ha,15
same,ECHCG plant response rating (scale of 0 to 100),[3]; Rate 8 g/ha,25
same,ECHCG plant response rating (scale of 0 to 100),[3]; Rate 16 g/ha,35
same,CYPDI plant response rating (scale of 0 to 100),[4]; Rate 8 g/ha,85
same,CYPDI plant response rating (scale of 0 to 100),[4]; Rate 16 g/ha,85
same,HETLI plant response rating (scale of 0 to 100),[5]; Rate 8 g/ha,0
same,HETLI plant response rating (scale of 0 to 100),[5]; Rate 16 g/ha,60
"Cc1nn(-c2ccc(C(F)(F)F)cc2)nc1Cc1ccnc(C(F)(F)F)c1 [Compound 47, 4-[[5-methyl-2-[4-(trifluoromethyl)phenyl]-2H-1,2,3-triazol-4-yl]methyl]-2-(trifluoromethyl)pyridine]","Plant response rating: Dayflower, VA","[1]; Postemergence, 250 g ai/ha",30
same,"Plant response rating: Dayflower, VA","[1]; Postemergence, 16 g ai/ha",10
same,"Plant response rating: Dayflower, VA","[1]; Postemergence, 31 g ai/ha",10
same,"Plant response rating: Dayflower, VA","[1]; Postemergence, 62 g ai/ha",20
same,"Plant response rating: Dayflower, VA","[1]; Postemergence, 125 g ai/ha",25
same,Plant response rating: Morningglory,[6]; 16 g ai/ha,15
same,Plant response rating: Morningglory,[6]; 31 g ai/ha,30
same,Plant response rating: Morningglory,[6]; 62 g ai/ha,35
same,Plant response rating: Morningglory,[6]; 125 g ai/ha,40
same,Plant response rating: Morningglory,[6]; 250 g ai/ha,65
"Cc1nn(-c2ccc(F)cc2)nc1Oc1ccnc(C(F)(F)F)c1 [Compound 129, 4-[[2-(4-fluorophenyl)-5-methyl-2H-1,2,3-triazol-4-yl]oxy]-2-(trifluoromethyl)pyridine]",Plant response rating: Morningglory,[6]; 8 g ai/ha,0
same,Plant response rating: Morningglory,[6]; 16 g ai/ha,0
same,Plant response rating: Morningglory,[6]; 31 g ai/ha,0
same,Plant response rating: Morningglory,[6]; 62 g ai/ha,40
same,Plant response rating: Morningglory,[6]; 125 g ai/ha,50
same,ORYSP plant response rating (scale of 0 to 100),[2]; Rate 16 g/ha,0
same,ORYSP plant response rating (scale of 0 to 100),[2]; Rate 31 g/ha,5
same,ORYSP plant response rating (scale of 0 to 100),[2]; Rate 32 g/ha,10
same,ECHCG plant response rating (scale of 0 to 100),[3]; Rate 16 g/ha,0
same,ECHCG plant response rating (scale of 0 to 100),[3]; Rate 31 g/ha,15
same,ECHCG plant response rating (scale of 0 to 100),[3]; Rate 32 g/ha,5
same,CYPDI plant response rating (scale of 0 to 100),[4]; Rate 16 g/ha,0
same,CYPDI plant response rating (scale of 0 to 100),[4]; Rate 31 g/ha,75
same,CYPDI plant response rating (scale of 0 to 100),[4]; Rate 32 g/ha,48
same,HETLI plant response rating (scale of 0 to 100),[5]; Rate 16 g/ha,0
same,HETLI plant response rating (scale of 0 to 100),[5]; Rate 31 g/ha,40
same,HETLI plant response rating (scale of 0 to 100),[5]; Rate 32 g/ha,25
Cc1nn(-c2ccc(F)c(F)c2)nc1Oc1ccnc(C(F)(F)F)c1 [Compound 145],"Plant response rating, Waterhemp, Res1",[7]; 125 g ai/ha,90
same,"Plant response rating, Waterhemp, Res2",[8]; 125 g ai/ha,85
Cc1nn(-c2ccc(C(F)(F)F)c(F)c2)nc1Cc1ccnc(C(F)(F)F)c1 [Compound 162],"Plant response rating, Waterhemp, Res1",[7]; 4 g ai/ha,70
same,"Plant response rating, Waterhemp, Res1",[7]; 8 g ai/ha,90
same,"Plant response rating, Waterhemp, Res1",[7]; 16 g ai/ha,90
same,"Plant response rating, Waterhemp, Res1",[7]; 31 g ai/ha,95
same,"Plant response rating, Waterhemp, Res1",[7]; 62 g ai/ha,95
same,"Plant response rating, Waterhemp, Res2",[8]; 4 g ai/ha,75
same,"Plant response rating, Waterhemp, Res2",[8]; 8 g ai/ha,90
same,"Plant response rating, Waterhemp, Res2",[8]; 16 g ai/ha,90
same,"Plant response rating, Waterhemp, Res2",[8]; 31 g ai/ha,95
same,"Plant response rating, Waterhemp, Res2",[8]; 62 g ai/ha,100
CCc1nn(-c2ccc(F)cc2)nc1Oc1ccnc(C(F)(F)F)c1 [Compound 166],"Plant response rating, Waterhemp",Waterhemp; 31 g ai/ha,55
CCOc1nn(-c2ccc(Br)cc2)nc1Cc1ccnc(C(F)(F)F)c1 [Compound 189],"Plant response rating, Waterhemp",Waterhemp; 16 g ai/ha,90
same,"Plant response rating, Waterhemp",Waterhemp; 31 g ai/ha,98
